The source of these data is ChEMBL document CHEMBL5375983, “Discovery of YSR734: A Covalent HDAC Inhibitor with Cellular Activity in Acute Myeloid Leukemia and Duchenne Muscular Dystrophy” (J Med Chem, 2023).

The target in data set [1] is Histone deacetylase 3 (Homo sapiens, UniProt O15379). The data set can be described thus: Inhibition of full length recombinant human HDAC3 expressed in Sf9 cells using 6-carboxyfluorescein peptide as substrate preincubated with compound for 6 hrs followed by substrate addition and measured after 3 hrs by electrophoretic mobility shift assay. The format is cell-based. (In general: Mobility shift assays separate free from complexed probe on a gel.)

The target of data set [2] is T1, Protein deacetylase HDAC6 (Homo sapiens, UniProt Q9UBN7).
T1 sequence (Q9UBN7 whole entry): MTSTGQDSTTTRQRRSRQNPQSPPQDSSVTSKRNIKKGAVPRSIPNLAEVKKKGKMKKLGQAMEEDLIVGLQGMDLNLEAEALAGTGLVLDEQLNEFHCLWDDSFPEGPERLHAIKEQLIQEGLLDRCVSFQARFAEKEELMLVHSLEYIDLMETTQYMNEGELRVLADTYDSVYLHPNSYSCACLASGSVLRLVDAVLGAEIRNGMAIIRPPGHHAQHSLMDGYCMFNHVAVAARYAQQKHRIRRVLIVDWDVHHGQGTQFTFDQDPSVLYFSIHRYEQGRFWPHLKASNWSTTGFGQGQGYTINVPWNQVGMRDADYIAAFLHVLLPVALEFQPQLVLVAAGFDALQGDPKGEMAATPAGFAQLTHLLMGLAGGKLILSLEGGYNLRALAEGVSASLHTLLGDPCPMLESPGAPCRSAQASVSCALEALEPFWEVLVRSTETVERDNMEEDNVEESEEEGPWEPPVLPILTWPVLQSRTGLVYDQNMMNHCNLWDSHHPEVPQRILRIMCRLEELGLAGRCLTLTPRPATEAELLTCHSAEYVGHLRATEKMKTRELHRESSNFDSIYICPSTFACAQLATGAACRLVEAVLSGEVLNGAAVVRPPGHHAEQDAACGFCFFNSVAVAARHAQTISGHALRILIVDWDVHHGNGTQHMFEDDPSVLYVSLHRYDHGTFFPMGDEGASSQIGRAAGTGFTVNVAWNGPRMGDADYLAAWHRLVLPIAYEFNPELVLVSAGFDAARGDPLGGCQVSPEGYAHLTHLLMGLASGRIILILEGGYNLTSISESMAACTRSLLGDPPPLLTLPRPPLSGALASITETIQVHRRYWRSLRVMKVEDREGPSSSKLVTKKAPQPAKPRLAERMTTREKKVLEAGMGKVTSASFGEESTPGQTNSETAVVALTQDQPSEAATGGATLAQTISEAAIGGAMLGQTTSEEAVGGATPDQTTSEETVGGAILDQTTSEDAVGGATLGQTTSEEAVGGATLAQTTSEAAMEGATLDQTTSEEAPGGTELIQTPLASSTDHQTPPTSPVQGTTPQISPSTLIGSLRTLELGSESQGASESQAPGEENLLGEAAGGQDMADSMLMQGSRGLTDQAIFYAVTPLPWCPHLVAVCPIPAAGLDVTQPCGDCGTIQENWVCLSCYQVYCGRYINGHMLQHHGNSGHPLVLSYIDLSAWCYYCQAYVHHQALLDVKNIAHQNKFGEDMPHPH
The data set can be described thus: Inhibition of full length recombinant human HDAC6 expressed in Sf9 cells using 6-carboxyfluorescein peptide as substrate preincubated with compound for 6 hrs followed by substrate addition and measured after 5 hrs by electrophoretic mobility shift assay.

For data set [3], the target named is T2, Histone deacetylase 1 (Homo sapiens, UniProt Q13547). In words: Inhibition of HDAC1 (unknown origin) using 6-carboxyfluorescein peptide as substrate preincubated with compound followed by substrate addition by electrophoretic mobility shift assay.
Data set [4] has as its target T3, Histone deacetylase 2 (Homo sapiens, UniProt Q92769). In words: Inhibition of HDAC2 (unknown origin) using 6-carboxyfluorescein peptide as substrate preincubated with compound followed by substrate addition by electrophoretic mobility shift assay.
The nature of data set [5]: Glutathione reactivity assessed as compound consumption at 500 nM measured after 1 to 3 hrs by LC-MS/MS analysis. The format is ADME. To be noted: glutathione solution, time 1-3 hrs, read-out: Activity.
The target in data set [6] is T3, Histone deacetylase 2. The data set can be described thus: Binding affinity to recombinant full length HDAC2 catalytic domain Cys274 (unknown origin) assessed as formation of single covalent adduct at 50 uM incubated for 2 hrs by trypsin-digest protein mapping analysis.
The target of data set [7] is Histone deacetylase 9 (Homo sapiens, UniProt Q9UKV0). The data set can be described thus: Inhibition of HDAC9 (unknown origin) using 6-carboxyfluorescein peptide as substrate preincubated with compound for 6 hrs followed by substrate addition by electrophoretic mobility shift assay.
Data set [8] deals with Histone deacetylase 2 (Mus musculus) (UniProt P70288). In words: Inhibition of HDAC2 in mouse C2C12 cells at 5 uM incubated for 72 hrs by immunofluorescence analysis. The format is cell-based.
Data set [9] addresses T2, Histone deacetylase 1. In words: Inhibition of HDAC1 (unknown origin) using 6-carboxyfluorescein peptide as substrate preincubated with compound for 6 hrs followed by substrate addition by electrophoretic mobility shift assay.
The subject of data set [10] is MV4-11. The data set can be described thus: Induction of apoptosis in human MV4-11 cells assessed as late apoptotic cells at 1 uM measured after 6 hrs by annexin V-FITC/PI staining based FACS assay (reference value: 16.21%). The format is functional. (In general: In flow cytometry, cells or beads pass a laser one at a time.)
Data set [11] concerns the target Histone deacetylase 4 (Homo sapiens, UniProt P56524). The data set can be described thus: Inhibition of HDAC4 (unknown origin) using 6-carboxyfluorescein peptide as substrate preincubated with compound for 6 hrs followed by substrate addition by electrophoretic mobility shift assay.

The IC50 is the concentration that gives 50% inhibition.

Activity calls are given as the source filed them. No cut-off for these calls is given here.

T2 sequence (Q13547 whole entry): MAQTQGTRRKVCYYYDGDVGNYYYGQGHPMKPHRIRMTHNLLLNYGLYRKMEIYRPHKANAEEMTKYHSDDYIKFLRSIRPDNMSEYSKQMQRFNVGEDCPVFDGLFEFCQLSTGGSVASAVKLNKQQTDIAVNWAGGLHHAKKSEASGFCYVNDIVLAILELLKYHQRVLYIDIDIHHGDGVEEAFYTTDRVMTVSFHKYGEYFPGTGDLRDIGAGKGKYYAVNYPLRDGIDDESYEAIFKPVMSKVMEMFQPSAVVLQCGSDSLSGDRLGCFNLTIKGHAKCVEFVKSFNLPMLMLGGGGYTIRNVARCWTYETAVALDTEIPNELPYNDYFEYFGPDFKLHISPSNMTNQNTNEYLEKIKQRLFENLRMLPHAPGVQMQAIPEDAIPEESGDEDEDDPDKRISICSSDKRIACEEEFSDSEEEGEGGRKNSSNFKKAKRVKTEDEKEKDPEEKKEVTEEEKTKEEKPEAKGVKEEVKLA
T3 sequence (Q92769 whole entry): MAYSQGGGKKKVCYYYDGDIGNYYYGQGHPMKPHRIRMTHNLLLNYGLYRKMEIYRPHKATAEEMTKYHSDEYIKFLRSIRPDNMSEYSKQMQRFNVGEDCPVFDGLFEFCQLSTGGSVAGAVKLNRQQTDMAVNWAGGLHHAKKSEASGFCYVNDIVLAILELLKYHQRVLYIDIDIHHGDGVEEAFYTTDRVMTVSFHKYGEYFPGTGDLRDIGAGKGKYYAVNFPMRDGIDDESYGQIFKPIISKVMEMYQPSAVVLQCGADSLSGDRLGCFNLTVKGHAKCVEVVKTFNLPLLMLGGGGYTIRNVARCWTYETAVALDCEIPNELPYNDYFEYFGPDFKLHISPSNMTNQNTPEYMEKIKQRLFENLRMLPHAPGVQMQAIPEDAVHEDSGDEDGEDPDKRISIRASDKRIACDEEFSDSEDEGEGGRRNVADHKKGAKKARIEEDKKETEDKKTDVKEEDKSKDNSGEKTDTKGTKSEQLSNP
Chain of Histone deacetylase 3 (O15379 whole entry): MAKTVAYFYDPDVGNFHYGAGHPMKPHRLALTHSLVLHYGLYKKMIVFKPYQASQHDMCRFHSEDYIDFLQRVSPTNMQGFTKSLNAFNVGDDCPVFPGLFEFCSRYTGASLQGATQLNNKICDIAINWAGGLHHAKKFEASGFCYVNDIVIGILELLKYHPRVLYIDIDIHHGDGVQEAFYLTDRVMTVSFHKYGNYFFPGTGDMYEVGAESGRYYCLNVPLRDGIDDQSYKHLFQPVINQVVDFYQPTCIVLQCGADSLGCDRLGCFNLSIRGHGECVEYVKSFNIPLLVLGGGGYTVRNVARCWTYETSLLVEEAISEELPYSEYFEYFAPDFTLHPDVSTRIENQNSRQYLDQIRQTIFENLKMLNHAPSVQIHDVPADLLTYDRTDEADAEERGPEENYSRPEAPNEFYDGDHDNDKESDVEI
Chain of Histone deacetylase 9 (Q9UKV0 whole entry): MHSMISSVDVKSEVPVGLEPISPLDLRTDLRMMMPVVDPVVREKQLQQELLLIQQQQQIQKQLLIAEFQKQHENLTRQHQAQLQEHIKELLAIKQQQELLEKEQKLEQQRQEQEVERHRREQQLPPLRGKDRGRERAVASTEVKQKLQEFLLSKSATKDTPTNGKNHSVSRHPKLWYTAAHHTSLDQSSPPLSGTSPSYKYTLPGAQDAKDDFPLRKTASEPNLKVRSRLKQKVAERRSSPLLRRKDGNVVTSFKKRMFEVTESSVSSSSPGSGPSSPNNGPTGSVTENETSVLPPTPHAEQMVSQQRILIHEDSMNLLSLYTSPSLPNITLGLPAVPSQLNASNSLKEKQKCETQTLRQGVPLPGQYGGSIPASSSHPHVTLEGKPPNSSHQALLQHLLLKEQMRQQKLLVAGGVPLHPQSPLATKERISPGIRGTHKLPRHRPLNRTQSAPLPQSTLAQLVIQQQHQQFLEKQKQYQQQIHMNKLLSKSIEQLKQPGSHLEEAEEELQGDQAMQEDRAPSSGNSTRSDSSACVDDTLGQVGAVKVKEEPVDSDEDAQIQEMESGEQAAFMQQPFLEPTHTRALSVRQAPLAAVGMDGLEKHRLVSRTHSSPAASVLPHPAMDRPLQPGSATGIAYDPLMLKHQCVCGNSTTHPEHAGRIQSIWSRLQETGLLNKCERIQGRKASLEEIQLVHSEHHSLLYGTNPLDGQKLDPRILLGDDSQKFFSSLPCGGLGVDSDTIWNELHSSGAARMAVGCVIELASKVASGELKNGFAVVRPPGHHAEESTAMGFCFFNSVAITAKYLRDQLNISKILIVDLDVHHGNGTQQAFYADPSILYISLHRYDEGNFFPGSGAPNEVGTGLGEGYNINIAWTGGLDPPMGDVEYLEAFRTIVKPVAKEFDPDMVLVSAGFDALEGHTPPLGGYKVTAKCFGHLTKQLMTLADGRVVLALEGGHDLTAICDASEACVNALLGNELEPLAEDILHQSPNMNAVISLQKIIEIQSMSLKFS
Chain of Histone deacetylase 4 (P56524 whole entry): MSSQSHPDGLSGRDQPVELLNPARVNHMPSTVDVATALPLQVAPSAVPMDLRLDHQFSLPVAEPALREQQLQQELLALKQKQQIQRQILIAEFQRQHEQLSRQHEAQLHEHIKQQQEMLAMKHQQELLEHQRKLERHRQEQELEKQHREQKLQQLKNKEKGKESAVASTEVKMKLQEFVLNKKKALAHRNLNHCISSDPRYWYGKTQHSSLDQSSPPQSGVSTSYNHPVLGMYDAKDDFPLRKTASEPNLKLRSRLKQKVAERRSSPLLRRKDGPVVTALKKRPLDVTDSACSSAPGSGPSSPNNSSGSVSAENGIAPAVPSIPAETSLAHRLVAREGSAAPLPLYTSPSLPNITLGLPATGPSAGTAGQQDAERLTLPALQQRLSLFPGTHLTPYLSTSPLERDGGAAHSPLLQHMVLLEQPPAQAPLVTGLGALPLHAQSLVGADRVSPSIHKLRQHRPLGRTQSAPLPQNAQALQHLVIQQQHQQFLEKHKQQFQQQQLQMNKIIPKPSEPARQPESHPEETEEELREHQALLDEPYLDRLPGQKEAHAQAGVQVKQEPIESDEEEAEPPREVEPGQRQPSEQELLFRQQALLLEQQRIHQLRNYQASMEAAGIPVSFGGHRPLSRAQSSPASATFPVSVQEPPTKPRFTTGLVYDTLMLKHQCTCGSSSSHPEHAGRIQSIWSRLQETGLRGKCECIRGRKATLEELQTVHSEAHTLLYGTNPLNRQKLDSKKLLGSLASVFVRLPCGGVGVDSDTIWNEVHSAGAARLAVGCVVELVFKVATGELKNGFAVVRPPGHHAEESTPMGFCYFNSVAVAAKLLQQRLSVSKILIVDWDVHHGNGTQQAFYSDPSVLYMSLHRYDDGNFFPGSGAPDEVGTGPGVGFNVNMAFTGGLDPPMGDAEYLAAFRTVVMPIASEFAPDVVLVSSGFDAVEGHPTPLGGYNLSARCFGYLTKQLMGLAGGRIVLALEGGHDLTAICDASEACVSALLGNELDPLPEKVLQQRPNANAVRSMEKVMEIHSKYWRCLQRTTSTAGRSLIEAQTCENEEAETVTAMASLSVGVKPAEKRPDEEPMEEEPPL
Chain of Histone deacetylase 2 (Mus musculus) (P70288 whole entry): as the sequence (Q92769 whole entry) above, with V289A, T477P, T480A counted along it

Turning to `Nc1ccccc1NC(=O)c1ccc(CNC(=O)OC2CCN(S(=O)(=O)c3c(F)c(F)c(F)c(F)c3F)CC2)cc1`, the IC50 was 143 nM in data set [1]; over 10000 nM in data set [2]; 242 nM in data set [3]; 808 nM in data set [4]; over 10000 nM in data set [7]; 109 nM in [9]. Moreover, in data set [11], the IC50 is over 10000 nM. The degraded at 0.5 µM in data set [5] is over 50%. The result in data set [6] was Active. Also, in data set [8], the inhibition entry is “Active”. Further, in [10], the Activity was determined as 48.31%.
